Results: patent publication US20080070867A1, “2-Imidazolone and 2-Imidazolidinone Heterocyclic Inhibitors of Tyrosine Phosphatases” (Metabasis Therapeutics, Inc., priority 2005, published 2008)

Target: T1, Human recombinant PTP-1B (Homo sapiens, UniProt P18031)
T1 construct: Human recombinant PTP-1B, containing amino acids 1-321, fused to GST enzyme; GST (glutathione S-transferase)
T1 sequence (P18031 1-321): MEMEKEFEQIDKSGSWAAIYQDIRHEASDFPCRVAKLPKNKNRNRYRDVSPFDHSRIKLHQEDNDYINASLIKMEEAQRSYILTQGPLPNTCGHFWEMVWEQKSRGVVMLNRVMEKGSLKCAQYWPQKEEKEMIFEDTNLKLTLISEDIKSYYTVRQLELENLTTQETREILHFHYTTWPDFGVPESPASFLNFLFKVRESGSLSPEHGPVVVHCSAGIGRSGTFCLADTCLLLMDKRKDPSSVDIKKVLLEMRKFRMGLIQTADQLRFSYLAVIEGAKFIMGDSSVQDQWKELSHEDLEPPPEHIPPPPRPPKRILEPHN
Assay: Assay for PTP-1B Activity (pNPP substrate)
Type: biochemical
Conditions: human recombinant PTP-1B (1-321) GST fusion, 2 mM pNPP, pH 7.4, 30° C., 20 min; read-out: Activity Code (IC50 range)
Source text: The activity of the compounds as modulators of protein tyrosine phosphatase, including PTP-1B, may be measured in standard assays (see, e.g., Examples 41 and 42). Briefly, the assay described herein employs human recombinant PTP-1B and a pNPP substrate in a rescue assay.
Assay for PTP-1B Activity
Enzyme: Human recombinant PTP-1B, containing amino acids 1-321, fused to GST enzyme (glutathione S-transferase) purified by affinity chromatography (Huyer et al, 1997, J. Biol. Chem., 272, 843-852).
pNPP: p-Nitrophenyl Phosphate (Calbiochem)
Assay Buffer: 50 mM HEPES (pH 7.4), 100 mM NaCl, 2 mM EDTA, 3 mM DTT
(5×) pNPP substrate: 10 mM pNPP in assay buffer
Enzyme: 1 mg/ml PTP1B (1-321), dilute 1:200 in assay buffer
Assay buffer: 50 mM HEPES (pH 7.4), 100 mM NaCl, 2 mM EDTA, 3 mM DTT
Enzyme dilution buffer: 50 mM HEPES (pH 7.4), 100 mM NaCl, 2 mM EDTA, 3 mM DTT
Substrate 198 mM p-Nitrophenyl Phosphate (pNPP) store at 4° C.
The assay was carried out at 30° C. in 96 well plates. The reaction mixture in 60 ul contained 50 mM HEPES (pH 7.4), 100 mM NaCl, 2 mM EDTA, 3 mM DTT, and 2 mM p-Nitrophenyl Phosphate (pNPP). 5 ul of the test compound (inhibitor) dissolved in DMSO or DMSO alone for control was added to each well and the plate was mixed for 2 min. The reaction was initiated by adding 20 ul of diluted PTP1B (5 ng/ul in 50 mM HEPES (pH 7.4), 100 mM NaCl, 2 mM EDTA, 3 mM DTT). After 20 min at 30° C., the enzyme reaction was terminated by adding 100 ul of 2 M K2CO3 to each well. The phosphatase activity was detected by using Victor II plate reader (Wallac) with absorbance detection at 405 nm. All the assays were done at least in duplicate. The initial rate of pNP is plotted against the concentration of inhibitor.

**Q.** Which IC50 does the source give for `CCOC(=O)n1cc(-c2ccc(S(C)(=O)=O)cc2)n(Cc2ccc(C(F)(F)P(=O)(O)O)c(Br)c2)c1=O` [Compound 1, 3-[3-Bromo-4-(difluoro-phosphono-methyl)-benzyl]-4-(4-methanesulfonyl-phenyl)-2-oxo-2,3-dihydro-imidazole-1-carboxylic acid ethyl ester] here?
**A.** 0.1 to 0.249 µM

**Q.** For `O=C(O)c1ccc(-c2cn(Cc3ccccc3)c(=O)n2Cc2ccc(C(F)(F)P(=O)(O)O)c(Br)c2)cc1` [Compound 2, 4-{1-Benzyl-3-[3-bromo-4-(difluoro-phosphono-methyl)-benzyl]-2-oxo-2,3-dihydro-1H-imidazol-4-yl}-benzoic acid], which IC50 is on record?
**A.** 0.25 to 2.5 µM

**Q.** `CS(=O)(=O)c1ccc(-c2c[nH]c(=O)n2Cc2ccc(C(F)(F)P(=O)(O)O)c(Br)c2)cc1` [Compound 3, ({2-Bromo-4-[5-(4-methanesulfonyl-phenyl)-2-oxo-2,3-dihydro-imidazol-1-ylmethyl]-phenyl}-difluoro-methyl)-phosphonic acid] was tested. Which IC50 did it give?
**A.** 0.25 to 2.5 µM

**Q.** For `Cn1cc(-c2ccc(S(C)(=O)=O)cc2)n(Cc2ccc(C(F)(F)P(=O)(O)O)c(Br)c2)c1=O` [Compound 4, ({2-Bromo-4-[5-(4-methanesulfonyl-phenyl)-3-methyl-2-oxo-2,3-dihydro-imidazol-1-ylmethyl]-phenyl}-difluoro-methyl)-phosphonic acid], which IC50 is on record?
**A.** 0.1 to 0.249 µM

**Q.** `COC(=O)c1ccc(-c2cn(Cc3ccccc3)c(=O)n2Cc2ccc(C(F)(F)P(=O)(O)O)c(Br)c2)cc1` [Compound 6, 4-{1-Benzyl-3-[3-bromo-4-(difluoro-phosphono-methyl)-benzyl]-2-oxo-2,3-dihydro-1H-imidazol-4-yl}-benzoic acid methyl ester] was tested. Which IC50 did it give?
**A.** 0.1 to 0.249 µM

**Q.** How did the IC50 turn out when `O=C(O)c1ccc(-c2c[nH]c(=O)n2Cc2ccc(C(F)(F)P(=O)(O)O)c(Br)c2)cc1` [Compound 7, 4-{3-[3-Bromo-4-(difluoro-phosphono-methyl)-benzyl]-2-oxo-2,3-dihydro-1H-imidazol-4-yl}-benzoic acid] was run?
**A.** 0.25 to 2.5 µM

**Q.** With `O=C(O)c1ccc(-c2cn(Cc3ccccc3)c(=O)n2Cc2ccc(C(F)(F)P(=O)(O)O)c(Cl)c2)cc1` [Compound 9, 4-{1-Benzyl-3-[3-chloro-4-(difluoro-phosphono-methyl)-benzyl]-2-oxo-2,3-dihydro-1H-imidazol-4-yl}-benzoic acid] as the molecule, how does the IC50 read?
**A.** 0.25 to 2.5 µM

**Q.** Which IC50 does the source give for `COC(=O)c1ccc(-c2cn(Cc3ccccc3)c(=O)n2Cc2ccc(C(F)(F)P(=O)(O)O)c(Cl)c2)cc1` [Compound 10, 4-{1-Benzyl-3-[3-chloro-4-(difluoro-phosphono-methyl)-benzyl]-2-oxo-2,3-dihydro-1H-imidazol-4-yl}-benzoic acid methyl ester] here?
**A.** 0.25 to 2.5 µM

**Q.** Which IC50 does the source give for `COC(=O)c1ccc(-c2cn(Cc3ccc(F)cc3)c(=O)n2Cc2ccc(C(F)(F)P(=O)(O)O)c(Br)c2)cc1` [Compound 11, 4-[3-[3-Bromo-4-(difluoro-phosphono-methyl)-benzyl]-1-(4-fluoro-benzyl)-2-oxo-2,3-dihydro-1H-imidazol-4-yl]-benzoic acid methyl ester] here?
**A.** 0.1 to 0.249 µM

**Q.** For `COC(=O)c1ccc(-c2cn(CCc3ccccc3)c(=O)n2Cc2ccc(C(F)(F)P(=O)(O)O)c(Br)c2)cc1` [Compound 12, 4-{3-[3-Bromo-4-(difluoro-phosphono-methyl)-benzyl]-2-oxo-1-phenethyl-2,3-dihydro-1H-imidazol-4-yl}-benzoic acid methyl ester], which IC50 is on record?
**A.** 0.25 to 2.5 µM

**Q.** With `O=C(O)c1ccc(-c2cn(Cc3ccc(F)cc3)c(=O)n2Cc2ccc(C(F)(F)P(=O)(O)O)c(Br)c2)cc1` [Compound 13, 4-[3-[3-Bromo-4-(difluoro-phosphono-methyl)-benzyl]-1-(4-fluoro-benzyl)-2-oxo-2,3-dihydro-1H-imidazol-4-yl]-benzoic acid] as the molecule, how does the IC50 read?
**A.** 0.25 to 2.5 µM

**Q.** For `O=C(O)c1ccc(-c2cn(CCc3ccccc3)c(=O)n2Cc2ccc(C(F)(F)P(=O)(O)O)c(Br)c2)cc1` [Compound 14, 4-{3-[3-Bromo-4-(difluoro-phosphono-methyl)-benzyl]-2-oxo-1-phenethyl-2,3-dihydro-1H-imidazol-4-yl}-benzoic acid], which IC50 is on record?
**A.** 0.25 to 2.5 µM

**Q.** With `COC(=O)c1ccc(-c2cn(Cc3ccc(C#N)cc3)c(=O)n2Cc2ccc(C(F)(F)P(=O)(O)O)c(Br)c2)cc1` [Compound 15, 4-[3-[3-Bromo-4-(difluoro-phosphono-methyl)-benzyl]-1-(4-cyano-benzyl)-2-oxo-2,3-dihydro-1H-imidazol-4-yl]-benzoic acid methyl ester] as the molecule, how does the IC50 read?
**A.** 0.1 to 0.249 µM

**Q.** For `CCOC(=O)c1ccc(-c2cn(Cc3ccccc3)c(=O)n2Cc2ccc(C(F)(F)P(=O)(O)O)c(Br)c2)cc1` [Compound 16, 4-{1-Benzyl-3-[3-bromo-4-(difluoro-phosphono-methyl)-benzyl]-2-oxo-2,3-dihydro-1H-imidazol-4-yl}-benzoic acid ethyl ester], which IC50 is on record?
**A.** 0.25 to 2.5 µM

**Q.** `CS(=O)(=O)c1ccc(-c2cn(Cc3ccccc3)c(=O)n2Cc2ccc(C(F)(F)P(=O)(O)O)c(Br)c2)cc1` [Compound 17, ({4-[3-Benzyl-5-(4-methanesulfonyl-phenyl)-2-oxo-2,3-dihydro-imidazol-1-ylmethyl]-2-bromo-phenyl}-difluoro-methyl)-phosphonic acid] was tested. Which IC50 did it give?
**A.** < 0.099 µM

**Q.** `N#Cc1ccc(-c2cn(Cc3ccccc3)c(=O)n2Cc2ccc(C(F)(F)P(=O)(O)O)c(Br)c2)cc1` [Compound 20, ({4-[3-Benzyl-5-(4-cyano-phenyl)-2-oxo-2,3-dihydro-imidazol-1-ylmethyl]-2-bromo-phenyl}-difluoro-methyl)-phosphonic acid] was tested. Which IC50 did it give?
**A.** 0.1 to 0.249 µM

**Q.** With `CS(=O)(=O)c1ccc(-c2cn(C3CC3)c(=O)n2Cc2ccc(C(F)(F)P(=O)(O)O)c(Br)c2)cc1` [Compound 21, ({2-Bromo-4-[3-cyclopropyl-5-(4-methanesulfonyl-phenyl)-2-oxo-2,3-dihydro-imidazol-1-ylmethyl]-phenyl}-difluoro-methyl)-phosphonic acid] as the molecule, how does the IC50 read?
**A.** 0.1 to 0.249 µM

**Q.** With `CS(=O)(=O)c1ccc(-c2cn(Cc3cccc(F)c3)c(=O)n2Cc2ccc(C(F)(F)P(=O)(O)O)c(Br)c2)cc1` [Compound 22, ({2-Bromo-4-[3-(3-fluoro-benzyl)-5-(4-methanesulfonyl-phenyl)-2-oxo-2,3-dihydro-imidazol-1-ylmethyl]-phenyl}-difluoro-methyl)-phosphonic acid] as the molecule, how does the IC50 read?
**A.** 0.1 to 0.249 µM

**Q.** `COC(=O)c1ccc(-c2cn(Cc3cc(OC)cc(OC)c3)c(=O)n2Cc2ccc(C(F)(F)P(=O)(O)O)c(Br)c2)cc1` [Compound 23, 4-[3-[3-Bromo-4-(difluoro-phosphono-methyl)-benzyl]-1-(3,5-dimethoxy-benzyl)-2-oxo-2,3-dihydro-1H-imidazol-4-yl]-benzoic acid methyl ester] was tested. Which IC50 did it give?
**A.** < 0.099 µM

**Q.** Which IC50 does the source give for `COC(=O)c1ccc(-c2cn(C3CC3)c(=O)n2Cc2ccc(C(F)(F)P(=O)(O)O)c(Br)c2)cc1` [Compound 24, 4-{3-[3-Bromo-4-(difluoro-phosphono-methyl)-benzyl]-1-cyclopropyl-2-oxo-2,3-dihydro-1H-imidazol-4-yl}-benzoic acid methyl ester] here?
**A.** 0.1 to 0.249 µM

**Q.** How did the IC50 turn out when `COC(=O)c1ccc(-c2cn(Cc3ccccn3)c(=O)n2Cc2ccc(C(F)(F)P(=O)(O)O)c(Br)c2)cc1` [Compound 25, 4-{3-[3-Bromo-4-(difluoro-phosphono-methyl)-benzyl]-2-oxo-1-pyridin-2-ylmethyl-2,3-dihydro-1H-imidazol-4-yl}-benzoic acid methyl ester] was run?
**A.** 0.1 to 0.249 µM
